Measured values: US20250388582A1, “NOVEL BICYCLIC HETEROARYL COMPOUND AND USE THEREOF” (ILDONG PHARMACEUTICAL CO., LTD., priority 2022, published 2025)

How the values were obtained:
PIKFYVE = target: T1, PIKFYVE (Homo sapiens, UniProt Q9Y2I7); experiment: NanoBRET TE Intracellular Kinase Assay, interaction of PIKFYVE and compounds in HEK293 cells; assay type: cell-based; conditions: IC50 class from BRET; HEK293 cells expressing PIKFYVE-NanoLuc; 2 hours incubation
T1 construct: host or cells: HEK293 (ATCC, CRL-1573)
Method: To predict the efficacy of the compounds according to Example on PIKFYVE in humans, the interaction between PIKFYVE and the compounds was tested using the HEK293 cell line derived from human embryonic kidney (ATCC, CRL-1573) via NanoBRETT TE Intracellular Kinase Assay Service of Carna biosciences Inc., (Japan). The evaluation method provided by Carna biosciences Inc., was shown below and the NanoBRET™ TE Intracellular Kinase Assay, K-8 Kit (Promega, CS1810C88) was used.
The HEK-293 cells cultured in Opti-MEM™ I Reduced Serum Medium (Thermo Fisher, 11058-021) were transfected with Transfection Carrier DNA (Promega, E4881), PIKFYVE-NanoLuc Fusion Vector (Promega, CS1810C225), and FuGENE HD Transfection Reagent (Promega, E2311) to produce cells expressing genes combining PIKFYVE and NanoLuc, followed by culturing 100 μl (2×10^5 cells/ml) each in 96-well plates (Corning, 3917).
10× compounds according to Examples or Comparative Examples prepared by concentration in 1× NanoBRET™ tracer reagent and DMSO were reacted in 96-well plates and incubated for 2 hours in a 37° C., 5% CO2 incubator.
After the reaction was completed, 3× Complete NanoBRET™ Nano-Glo Substrate solution was added to each well, and the reaction was allowed to run for 2-3 minutes at room temperature before BRET was measured using a GloMax Discover Multimode Microplate Reader (Promega).

human GST-PIKFYVE = target: T2, human GST-PIKFYVE (Homo sapiens, UniProt Q9Y2I7); experiment: ADP-Glo kinase assay, enzyme inhibition activity against human PIKFYVE (Carna biosciences); assay type: biochemical; conditions: inhibitory activity at final compound concentration 10 nM; 1 hour at room temperature
T2 construct: GST; purchased Carna biosciences 11-118
Method: The enzyme inhibition activity values for the compounds according to Examples against human PIKFYVE were calculated using the ADP-Glo™ kinase assay service of Carna biosciences, Inc. The enzyme activity evaluation method provided by Carna biosciences Inc., is shown below.
Enzyme inhibition activity was evaluated by reacting the compounds according to Examples with human GST-PIKFYVE (11-118, Carna biosciences), which was purified using glutathione Sepharose chromatography. The reaction buffer used was composed of 50 mmol/L MOPS, 1 mmol/L DTT, and pH 7.2, and all reactions of the test distilled water were performed in the buffer.
Compounds were prepared as solutions in 100% DMSO as 100× stocks and adjusted to have a final sample concentration of 10 nM.
The substrate-enzyme reaction for PIKFYVE was performed by mixing 5 μL human GST-PIKFYVE, 5 μL compounds according to Examples, 5 μL enzyme substrate, and 5 μL purified ATP and reacting for 1 hour at room temperature. After the substrate-enzyme reaction, 20 μL ADP-Glo™ Reagent was added and reacted at room temperature for 40 minutes, then 40 μL Kinase Detection Reagent was added and reacted at room temperature for 40 minutes.
After completion of the reaction, the degree of enzyme activity inhibition was measured by luminescence. The fluorescence of the enzyme activity in the solvent control group […] was set to 100%, and the fluorescence of the enzyme activity in the solvent control group without compound treatment was set to 0%. The inhibitory activity of each compound according to Examples was calculated based on these values.

T2 sequence (Q9Y2I7 whole entry): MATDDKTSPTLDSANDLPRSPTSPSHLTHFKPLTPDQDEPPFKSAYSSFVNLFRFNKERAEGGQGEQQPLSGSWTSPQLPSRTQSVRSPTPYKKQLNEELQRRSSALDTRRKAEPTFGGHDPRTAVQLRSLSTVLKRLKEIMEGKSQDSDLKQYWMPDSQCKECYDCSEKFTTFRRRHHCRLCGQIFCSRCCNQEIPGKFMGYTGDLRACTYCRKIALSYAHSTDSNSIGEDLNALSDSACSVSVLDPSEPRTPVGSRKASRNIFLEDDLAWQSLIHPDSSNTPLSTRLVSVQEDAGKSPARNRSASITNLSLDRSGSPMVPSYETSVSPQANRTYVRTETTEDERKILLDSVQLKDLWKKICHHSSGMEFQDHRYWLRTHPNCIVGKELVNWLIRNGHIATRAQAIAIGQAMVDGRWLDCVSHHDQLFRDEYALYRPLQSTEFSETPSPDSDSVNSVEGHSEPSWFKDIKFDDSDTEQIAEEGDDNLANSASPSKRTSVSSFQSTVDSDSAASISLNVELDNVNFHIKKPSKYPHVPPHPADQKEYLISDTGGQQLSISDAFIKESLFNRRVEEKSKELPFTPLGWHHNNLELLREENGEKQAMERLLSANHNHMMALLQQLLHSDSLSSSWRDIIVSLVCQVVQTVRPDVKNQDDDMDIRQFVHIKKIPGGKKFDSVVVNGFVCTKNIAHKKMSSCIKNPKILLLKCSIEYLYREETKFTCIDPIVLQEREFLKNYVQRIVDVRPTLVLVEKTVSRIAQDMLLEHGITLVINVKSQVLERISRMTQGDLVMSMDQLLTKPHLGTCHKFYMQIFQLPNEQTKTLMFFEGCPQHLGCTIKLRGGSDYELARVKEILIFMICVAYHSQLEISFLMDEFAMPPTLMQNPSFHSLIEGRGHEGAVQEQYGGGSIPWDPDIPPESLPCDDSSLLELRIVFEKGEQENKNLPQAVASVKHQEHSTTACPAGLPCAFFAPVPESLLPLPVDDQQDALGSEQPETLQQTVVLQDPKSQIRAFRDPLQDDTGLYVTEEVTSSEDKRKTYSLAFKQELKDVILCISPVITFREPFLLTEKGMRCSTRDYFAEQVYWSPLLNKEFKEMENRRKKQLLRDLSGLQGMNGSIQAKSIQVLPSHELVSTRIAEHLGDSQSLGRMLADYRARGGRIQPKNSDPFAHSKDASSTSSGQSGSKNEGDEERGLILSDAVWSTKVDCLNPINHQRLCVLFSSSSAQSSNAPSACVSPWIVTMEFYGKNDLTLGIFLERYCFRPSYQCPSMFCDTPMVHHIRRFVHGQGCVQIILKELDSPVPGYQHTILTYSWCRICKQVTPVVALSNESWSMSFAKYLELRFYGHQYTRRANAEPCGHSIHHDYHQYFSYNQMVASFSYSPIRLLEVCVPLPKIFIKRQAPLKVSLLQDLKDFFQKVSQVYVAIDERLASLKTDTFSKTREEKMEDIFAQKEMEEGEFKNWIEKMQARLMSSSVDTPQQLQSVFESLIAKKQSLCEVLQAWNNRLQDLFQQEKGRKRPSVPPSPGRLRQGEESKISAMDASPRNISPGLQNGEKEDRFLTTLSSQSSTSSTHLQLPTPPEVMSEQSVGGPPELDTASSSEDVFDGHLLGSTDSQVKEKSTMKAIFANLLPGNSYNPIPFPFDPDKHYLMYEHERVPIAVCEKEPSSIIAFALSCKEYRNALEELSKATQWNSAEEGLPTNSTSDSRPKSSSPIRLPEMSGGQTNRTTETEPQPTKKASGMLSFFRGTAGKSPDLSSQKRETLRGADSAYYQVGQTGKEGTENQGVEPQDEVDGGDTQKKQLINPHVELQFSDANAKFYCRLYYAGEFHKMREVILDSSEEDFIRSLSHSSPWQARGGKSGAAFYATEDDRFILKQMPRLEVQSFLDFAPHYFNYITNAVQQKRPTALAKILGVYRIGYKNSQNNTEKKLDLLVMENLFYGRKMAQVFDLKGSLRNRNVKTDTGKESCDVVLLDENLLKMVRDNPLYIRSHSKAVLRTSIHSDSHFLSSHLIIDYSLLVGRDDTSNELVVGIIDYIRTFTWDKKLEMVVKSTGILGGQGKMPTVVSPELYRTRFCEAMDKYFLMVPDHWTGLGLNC
T1 sequence (Q9Y2I7 whole entry): as above

SMILES | IC50 (PIKFYVE) | ADP-Glo kinase assay (%, 10 nM) (human GST-PIKFYVE)
Cc1cccc(/C=N/Nc2nc(N3CCOCC3)nc3c2ncn3CC(C)C)c1 [Example 17, (E)-4-(9-isobutyl-6-(2-(3-methylbenzylidene)hydrazinyl)-9H-purin-2-yl)morpholine] | 10 to 20 nM | 69.26%
Cc1cccc(/C=N/Nc2nc(N3CCOCC3)nc3c2ncn3CCc2ccccc2)c1 [Example 18, (E)-4-(6-(2-(3-methylbenzylidene)hydrazinyl)-9-phenethyl-9H-purin-2-yl)morpholine] | ≤ 10 nM | 89.87%
Cc1cccc(/C=N/Nc2nc(N3CCOCC3)nc3c2nc(C)n3-c2ccccn2)c1 [Example 164, (E)-4-(8-methyl-6-(2-(3-methylbenzylidene)hydrazinyl)-9-(pyridin-2-yl)-9H-purin-2-yl)morpholine] |  | 63.89%
Cc1ccccc1/C=N/n1cnc2c(Nc3ccncc3)nc(N3CCOCC3)nc21 [Example 167, (E)-9-((2-methylbenzylidene)amino)-2-morpholino-N-(pyridin-4-yl)-9H-purin-6-amine] |  | 68.47%
Cc1ccc(/C=N/n2cnc3c(Nc4ccncc4)nc(N4CCOCC4)nc32)cc1 [Example 168, (E)-9-((4-methylbenzylidene)amino)-2-morpholino-N-(pyridin-4-yl)-9H-purin-6-amine] |  | 87.26%
C(=N\n1cnc2c(Nc3ccncc3)nc(N3CCOCC3)nc21)/c1ccccc1 [Example 169, (E)-9-(benzylideneamino)-2-morpholino-N-(pyridin-4-yl)-9H-purin-6-amine] |  | 89.56%
FC(F)(F)c1cccc(/C=N/n2cnc3c(Nc4ccncc4)nc(N4CCOCC4)nc32)c1 [Example 170, (E)-2-morpholino-N-(pyridin-4-yl)-9-((3-(trifluoromethyl)benzylidene)amino)-9H-purin-6-amine] |  | 79.60%
Clc1cccc(/C=N/n2cnc3c(Nc4ccncc4)nc(N4CCOCC4)nc32)c1 [Example 171, (E)-9-((3-chlorobenzylidene)amino)-2-morpholino-N-(pyridin-4-yl)-9H-purin-6-amine] |  | 86.73%
COc1cccc(/C=N/n2cnc3c(Nc4ccncc4)nc(N4CCOCC4)nc32)c1 [Example 172, (E)-9-((3-methoxybenzylidene)amino)-2-morpholino-N-(pyridin-4-yl)-9H-purin-6-amine] |  | 90.96%
COc1ccc(/C=N/n2cnc3c(Nc4ccncc4)nc(N4CCOCC4)nc32)cc1 [Example 173, (E)-9-((4-methoxybenzylidene)amino)-2-morpholino-N-(pyridin-4-yl)-9H-purin-6-amine] |  | 73.94%
Cc1cccc(/C=N/n2cnc3c(-n4ccnc4)nc(N4CCOCC4)nc32)c1 [Example 176, (E)-N-(6-(1H-imidazol-1-yl)-2-morpholino-9H-purin-9-yl)-1-(m-tolyl)methanimine] |  | 56.91%
COc1ccc(Nc2nc(N3CCOCC3)nc3c2ncn3/N=C/c2cccc(C)c2)cc1 [Example 178, (E)-N-(4-methoxyphenyl)-9-((3-methylbenzylidene)amino)-2-morpholino-9H-purin-6-amine] |  | 55.44%
Cc1cccc(/C=N/n2cnc3c(Nc4ccccc4)nc(N4CCOCC4)nc32)c1 [Example 180, (E)-9-((3-methylbenzylidene)amino)-2-morpholino-N-phenyl-9H-purin-6-amine] |  | 63.03%
Cc1ccc(Nc2nc(N3CCOCC3)nc3c2ncn3/N=C/c2cccc(C)c2)cc1 [Example 181, (E)-9-((3-methylbenzylidene)amino)-2-morpholino-N-(p-tolyl)-9H-purin-6-amine] |  | 53.92%
COc1cccc(Nc2nc(N3CCOCC3)nc3c2ncn3/N=C/c2cccc(C)c2)c1 [Example 184, (E)-N-(3-methoxyphenyl)-9-((3-methylbenzylidene)amino)-2-morpholino-9H-purin-6-amine] |  | 55.65%
Cc1cccc(/C=N/n2cnc3c(Nc4ccc(Cl)cc4)nc(N4CCOCC4)nc32)c1 [Example 186, (E)-N-(4-chlorophenyl)-9-((3-methylbenzylidene)amino)-2-morpholino-9H-purin-6-amine] |  | 52.43%
COc1ccccc1Nc1nc(N2CCOCC2)nc2c1ncn2/N=C/c1cccc(C)c1 [Example 187, (E)-N-(2-methoxyphenyl)-9-((3-methylbenzylidene)amino)-2-morpholino-9H-purin-6-amine] |  | 52.07%
Cc1cccc(/C=N/n2cnc3c(Nc4cc(C)n(C)n4)nc(N4CCOCC4)nc32)c1 [Example 188, (E)-N-(1,5-dimethyl-1H-pyrazol-3-yl)-9-((3-methylbenzylidene)amino)-2-morpholino-9H-purin-6-amine] |  | 65.93%
Cc1cccc(Nc2nc(N3CCOCC3)nc3c2ncn3/N=C/c2cccnc2)c1 [Example 190, (E)-2-morpholino-9-((pyridin-3-ylmethylene)amino)-N-(m-tolyl)-9H-purin-6-amine] |  | 78.59%
Cc1cccc(/C=N/n2cnc3c(Nc4cncc(C)c4)nc(N4CCOCC4)nc32)c1 [Example 192, (E)-9-((3-methylbenzylidene)amino)-N-(5-methylpyridin-3-yl)-2-morpholino-9H-purin-6-amine] |  | 61.25%
Cc1cccc(/C=N/n2cnc3c(Nc4ccnc(Cl)c4)nc(N4CCOCC4)nc32)c1 [Example 193, (E)-N-(2-chloropyridin-4-yl)-9-((3-methylbenzylidene)amino)-2-morpholino-9H-purin-6-amine] |  | 64.35%
Cc1cccc(/C=N/n2cnc3c(Nc4cccnc4C)nc(N4CCOCC4)nc32)c1 [Example 194, (E)-9-((3-methylbenzylidene)amino)-N-(2-methylpyridin-3-yl)-2-morpholino-9H-purin-6-amine] |  | 61.38%
Cc1cccc(/C=N/n2cnc3c(Nc4cc(C)no4)nc(N4CCOCC4)nc32)c1 [Example 198, (E)-3-methyl-N-(9-((3-methylbenzylidene)amino)-2-morpholino-9H-purin-6-yl)isoxazol-5-amine] |  | 75.59%
Cc1cccc(CNn2cnc3c(Nc4ccncc4)nc(N4CCOCC4)nc32)c1 [Example 203, N^9-(3-methylbenzyl)-2-morpholino-N^6-(pyridin-4-yl)-9H-purin-6,9-diamine] |  | 53.14%
COc1ccc(Nc2nc(N3CCOCC3)nc3c2nc(C)n3/N=C/c2cccc(C)c2)cc1 [Example 205, (E)-N-(4-methoxyphenyl)-8-methyl-9-((3-methylbenzylidene)amino)-2-morpholino-9H-purin-6-amine] |  | 53.74%
Cc1cccc(/C=N/n2c(C)nc3c(Nc4ccccc4)nc(N4CCOCC4)nc32)c1 [Example 206, (E)-8-methyl-9-((3-methylbenzylidene)amino)-2-morpholino-N-phenyl-9H-purin-6-amine] |  | 53.87%
Cc1cccc(/C=N/n2c(C)nc3c(Nc4ccncc4)nc(N4CCOCC4)nc32)c1 [Example 207, (E)-8-methyl-9-((3-methylbenzylidene)amino)-2-morpholino-N-(pyridin-4-yl)-9H-purin-6-amine] |  | 75.57%
Cc1cccc(/C=N/n2c(C)nc3c(OCCc4ccccn4)nc(N4CCOCC4)nc32)c1 [Example 208, (E)-N-8-methyl-2-morpholino-(6-(2-pyridin-2-yl)ethoxy)-9H-purin-9-yl-1-(m-tolyl)methanimine] |  | 71.38%
Cc1cccc(/C=N/Nc2nc(N3CCOCC3)nc3nc(-c4cccnc4)ccc23)c1 [Example 216, (E)-4-(4-(2-(3-methylbenzylidene)hydrazinyl)-7-(pyridin-3-yl)pyrido[2,3-d]pyrimidin-2-yl)morpholine] |  | 63.00%
